Laboratory results published in patent US6747029B2, “Dopamine D4 receptor antagonists as treatment for attention deficit-hyperactivity disorder” (priority 2001, dated 2004).

What was measured:
6-OHDA-lesioned rats = experiment: Locomotor activity of juvenile rats with neonatal 6-OHDA lesions (ADHD model); type: in vivo, Sprague-Dawley rat; details: for hyperactivity in lesioned rats with psychostimulants: daytime 10:00-16:00 h, dose not given; for effect on lesion-induced hyperactivity (dose dependence): i.p., low and high dosage; for effect on lesion-induced hyperactivity (dose dependence) / motor activity in lesioned rats: daytime
Excerpt: For example, behavioral studies of juvenile rats with neonatal 6-hydroxydopamine (6-OHDA) lesions, as is described below, can be used to screen drugs in order to identify candidate drugs for use in the method of the invention. […] As a result, juvenile rats with neonatal 6-OHDA lesions are accepted as a laboratory model for ADHD.
On postnatal day (PD) 5, male Sprague-Dawley rat pups randomly received intracisternal injections of vehicle (“sham-lesioned”) (0.9% NaCl containing 0.1% ascorbic acid) or 6-OHDA hydrobromide (“lesioned”) (100 μg free base) into the brain under hypothermal anesthesia at 45 min after pretreatment with desipramine hydrochloride (20 mg/kg free base) injected subcutaneously (s.c.).
Behavioral effects of neonatal lesions were examined by monitoring locomotor activity at PD 21-30 in a novel environment to provoke exploratory activity. Rats were maintained under a 12-h artificial daylight/dark schedule (on, 07:00-19:00 h), with free access to tap-water and standard rat chow. Motor activity was automatically monitored for 90 min between PD 21 and 30, with a computer-controlled photobeam activity monitoring system (San Diego Instruments, San Diego, Calif.). […] […] Sessions were separated by 48 hours. […] Breaking of consecutive photobeams was scored as locomotion.

sham-lesioned rats = experiment: Locomotor activity of sham-lesioned control rats; type: in vivo, Sprague-Dawley rat; details: daytime 10:00-16:00 h
Procedure: (§1) On postnatal day (PD) 5, male Sprague-Dawley rat pups randomly received intracisternal injections of vehicle (“sham-lesioned”) (0.9% NaCl containing 0.1% ascorbic acid) or 6-OHDA hydrobromide (“lesioned”) (100 μg free base) into the brain under hypothermal anesthesia at 45 min after pretreatment with desipramine hydrochloride (20 mg/kg free base) injected subcutaneously (s.c.). Lesions of DA in forebrain tissue sections were verified by quantifying DA transporter binding with [^3H]GBR-12935 (1-[2-(diphenylmethoxy)ethyl]-4-(3-phenylpropyl)piperazine) by computed autoradiography at the completion of experiments as an indication of loss of DA nerve terminals in forebrain.
Behavioral effects of neonatal lesions were examined by monitoring locomotor activity at PD 21-30 in a novel environment to provoke exploratory activity. Rats were maintained under a 12-h artificial daylight/dark schedule (on, 07:00-19:00 h), with free access to tap-water and standard rat chow. Motor activity was automatically monitored for 90 min between PD 21 and 30, with a computer-controlled photobeam activity monitoring system (San Diego Instruments, San Diego, Calif.). […] Breaking of consecutive photobeams was scored as locomotion.

D2-like receptors = experiment: Autoradiography of D2-like receptor binding in forebrain after neonatal lesion; type: in vivo, rat
Procedure: as §1
(§2) Rats were sacrificed 2 days after the last behavioral testing for autoradiographic analysis of DA receptor density. Frozen coronal brain sections (10 μm) were prepared in a cryostat at −17° C., thaw-mounted on gelatin-coated microscopic slides and stored at −80° C. until quantitative autoradiographic assays. D2-like receptor binding was assayed with 1 nM [^3H]nemonapride in the presence of 0.5 μM 1,3-ditolylguanidine and 0.1 μM pindolol to block 5-HT1A sites in the brain tissue. Nonspecific binding was determined with 10 μM […]. […] Nonspecific binding was determined with 1 μM cis-flupenthixol.

D4 receptors [1] = experiment: Autoradiography of D4 receptor binding in forebrain after neonatal lesion; type: in vivo, rat
Procedure: as §1, §2

[2] = system: non-dopaminergic receptors; details: except 5-HT1A and 5-HT2A; cited from earlier work
D4 receptors [3] = target: T1, D4 receptors (Homo sapiens, UniProt P21917); details: cited from earlier work
T1 sequence (P21917 1-419): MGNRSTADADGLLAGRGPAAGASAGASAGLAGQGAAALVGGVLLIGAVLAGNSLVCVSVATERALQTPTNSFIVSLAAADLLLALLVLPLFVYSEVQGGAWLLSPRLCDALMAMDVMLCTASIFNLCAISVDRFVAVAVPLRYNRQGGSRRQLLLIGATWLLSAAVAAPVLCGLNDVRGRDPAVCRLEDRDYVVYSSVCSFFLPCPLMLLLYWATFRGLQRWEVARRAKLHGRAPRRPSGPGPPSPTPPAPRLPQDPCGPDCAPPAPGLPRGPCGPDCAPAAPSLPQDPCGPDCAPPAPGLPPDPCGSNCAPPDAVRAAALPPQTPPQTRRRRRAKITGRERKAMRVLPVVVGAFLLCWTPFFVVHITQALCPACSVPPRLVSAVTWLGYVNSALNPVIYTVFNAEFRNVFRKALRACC

COC(=O)C(c1ccccc1)C1CCCCN1 (racemic) [(±)-methylphenidate]
hyperactivity in lesioned rats with psychostimulants (6-OHDA-lesioned rats): reduced | motor activity in sham-lesioned controls (sham-lesioned rats): greatly increased motor activity

CC(N)Cc1ccccc1 (single isomer, unassigned; (+)) [(+)-amphetamine]
hyperactivity in lesioned rats with psychostimulants (6-OHDA-lesioned rats): reduced | motor activity in sham-lesioned controls (sham-lesioned rats): greatly increased motor activity

NCCc1cc(O)c(O)cc1O [6-OHDA, 6-hydroxydopamine]
increase of D2-like receptors versus sham (D2-like receptors; lateral CPu): 16.6% | increase of D2-like receptors versus sham (D2-like receptors; medial CPu): 18.3% | increase of D4 receptor binding versus sham (D4 receptors [1]; lateral CPu): 40.3% | increase of D4 receptor binding versus sham (D4 receptors [1]; medial CPu): 35.2%

Fc1ccc2[nH]c(CN3CCN(c4ccccn4)CC3)cc2c1 [CP-226,269]
effect on lesion-induced hyperactivity (dose dependence) (6-OHDA-lesioned rats): dose-dependent exacerbation

Fc1ccc(OCC2CCC3CN(c4ncc(F)cn4)CCN3C2)cc1 (stereo not drawn) [CP-293,019, 7R,S-(4-fluoro-phenoxymethyl)-2-(5-fluoro-pyrimidin-2-yl)-octahydropyrido[1,2-α]pyrazine]
motor activity in lesioned rats (6-OHDA-lesioned rats; 30 mg/kg i.p., 90 min session): indistinguishable from sham-lesioned controls | nocturnal hyperactivity in lesioned rats (6-OHDA-lesioned rats; 30 mg/kg, nocturnal 22:00-04:00 h): completely reversed | inhibition at 10 mg/kg (6-OHDA-lesioned rats; Rattus norvegicus, ip, read-out: inhibition of motor activity in lesioned rats): ~40% | effect on lesion-induced hyperactivity (dose dependence) (6-OHDA-lesioned rats): dose-dependent mitigation | affinity for non-dopaminergic receptors [2]: negligible affinity | potency at D4 receptors relative to D2 or other DA receptors (D4 receptors [3]): more than 1000 times | selectivity and kind of action at D4 receptors (D4 receptors [3]): highly D4 receptor-selective, full antagonist

Clc1ccc(N2CCN(Cc3c[nH]c4ncccc34)CC2)cc1 [L-745,870, 3-{[4-(4-chlorophenyl)piperazin-1-yl]methyl}-1H-pyrrolo[2,3-b]pyridine]
motor activity in lesioned rats (6-OHDA-lesioned rats; 15 mg/kg i.p.): reversed to a level similar to that found in control rats | selectivity and kind of action at D4 receptors (D4 receptors [3]): highly selective fill antagonist

CC[C@@H](CO)NC(=O)[C@@H]1C=C2c3cccc4c3c(cn4C)C[C@H]2N(C)C1 [methysergide]
effect of methysergide alone on lesion-induced hyperactivity (6-OHDA-lesioned rats; 2 mg/kg i.p., 30 min prior to testing): failed to affect | effect of methysergide pretreatment on motor responses to subsequent CP-293,019 (6-OHDA-lesioned rats; methysergide 2 mg/kg i.p. 30 min before CP-293,019 30 mg/kg): did not affect
